≈ marks a conversion by molar mass, not a printed value. Where two headings read alike, the source gives them in different places.
Key:
[1] = system: Mtb Erdman-Lux
[2] = system: Erdman Mtb strain; assay: MIC90 in different media, Erdman strain; format: cell-based; details: Mycobacterium tuberculosis
[3] = system: H37Rv Mtb strain; assay: MIC90 in different media, H37Rv strain; format: cell-based, Mycobacterium tuberculosis
[4] = system: Mtb H37Rv strain; assay: MIC90 determination in GASTE-Fe media (broth microdilution); format: cell-based, Mycobacterium tuberculosis; details: read-out: MIC90 GASTE-Fe
[5] = physchem; format: physicochemical; details: 25 °C, pH 7.4, aqueous buffer, kinetic solubility, pH 7.4, HPLC method
Description: The kinetic solubility assay was performed using a miniaturised shake flask method. 10 mM stock solutions of each of the test compounds were used to prepare calibration standards (10-220μM) in DMSO. The same 10mM stock solutions were accurately dispensed in duplicate into 96-well plates and the DMSO dried down (MiVac GeneVac, 90 min, 37 °C). Thereafter, the samples were reconstituted (200 µM) in phosphate buffered saline (pH 7.4) and shaken (20 hours, 25 °C). The solutions were filtered and analysed by means of HPLC -DAD (Agilent 1200 Rapid Resolution HPLC with a diode array detector). […]

[6] = format: in vitro ADME; details: for Metabolic Stability H (% Rem.): human liver microsomes
Description: 3.2. Microsomal stability
The metabolic stability assay was performed in duplicate in a 96-well micro titre plate. The test compounds (0.1 μM) were incubated individually in mouse, rat and pooled human liver microsomes ((final protein concentration of 0.4 mg/mL; XenoTech, Lenexa, KS ), suspended in 0.1M phosphate buffer (pH 7.4) at 37 °C for predetermined time points, in the presence and absence of the cofactor NADPH (1 mM). Reactions were quenched by adding ice cold acetonitrile containing internal standard (carbamazepine, 0.0236 µg/mL). T he samples were centrifuged and test compound in the supernatant were analysed by means of LC -MS/MS (Agilent Rapid Resolution HPLC, AB SCIEX 4500 MS ). The relative loss of parent compound over time was monitored and plots (concentration vs. time) were prepared per compound to determine the first order rate constant for compound depletion. This was in turn used to calculate half-life, in vitro intrinsic clearance and in vivo hepatic extraction ratio. Metabolite searches were not conducted during the metabolic stability assay. 5

[7] = in vivo; parameters: species or system C57/BL6 mice; details: for Vd / clearance / half-life / Tmax / Cmax: C57/BL6, in vivo; for clearance: read-out: CLtotal; for half-life: read-out: apparent t1/2 (converted); for Cmax: whole blood; for bioavailability: oral 20 mg/kg vs iv 5 mg/kg
Description: In vivo PK studies were performed on compound 1 (sulfone) and compound 2 (sulfoxide) (Table 3). All studies and procedures were conducted with prior approval of the animal ethics committee of the University of Cape Town (approval numbers 013/028 and 014/028) in accordance with the South African National Standard (SANS 10386:008) for the Care and Use of Animals for Scientific Purposes and guidelines from the Department of Health. […]
the South African National Standard (SANS 10386:008) for the Care and Use of Animals for Scientific Purposes,6 and guidelines from the Department of Health.7
The pharmacokinetic parameters of the compounds were determined by dosing the compound to C57/BL6 mice through oral (n = 3 mice) and intravenous (n = 3 mice) administration. For oral administration, the compounds were formulated in 0.5% hydroxypropylmethyl cellulose (HPMC) in Phosphate buffered saline pH 7.4. The intravenous doses were administered in dimethylacetamide-polyethylene glycol 400-polypropylene glycol (DMA-PEG400-PPG) (10:30:60) Blood samples were collected via tail bleeding at predetermined time points and stored at -80°C until liquid chromatography-tandem mass spectrometry (LC-MS/MS) analysis.
The whole-blood concentrations of the compounds were determined using a quantitative LC- […]
method, using ice -cold acetonitrile.
After centrifugation, the supernatant was transferred to 96 -well plates for analysis. LC -MS/MS was carried out on an AB Sciex 400 0 QTrap coupled to an Agilent 1200 high -performance liquid chromatograph (HPLC). Separation was achieved on a Kinetex PFP column column, using 0.1% formic acid in water as the aqueous mobile phase and 0.1% formic acid in acetonitrile as the organic mobile phase. The analytical limit of quantitation (LOQ) was 1 ng/ml. LC-MS/MS method accuracy and precision were 15% (nom) for the standards and […]
Concentration-versus-time data were used to derive the PK parameters using noncompartmental analys is on PK Solutions 2.0 (Summit Research Services, Montrose, CO,

[8] = system: cytochrome-bd oxidase knockout mutant strain (Δcyd); format: cell-based
[9] = system: iniB expression; format: cell-based; details: detects compounds targeting cell-wall biosynthesis
[10] = system: recA expression; format: cell-based; details: indicator of genotoxic compounds
[11] = in vitro; details: Chinese hamster
[12] = 100 mg/kg oral once per day, 12 days, three days after last dose, untreated 6.51
[13] = Erdman, 7H12 + casitone + palmitic acid + BSA + catalase + Tween 80 (glycerol-free)
[14] = Mycobacterium tuberculosis, H37RV; 7H12 + casitone + palmitic acid + BSA + catalase + Tween 80 (glycerol-free); read-out: MIC90
[15] = Mycobacterium tuberculosis, H37RV; read-out: MIC90
[16] = Mycobacterium tuberculosis, H37RV, 336 h, Mtb H37Rv, replicating conditions, GASTE-Fe media, read 14 days after incubation
[17] = C57/BL6, mouse, in vivo, read-out: bioavailability

**Q.** Which results are given for `CC[C@@H](CO)NCCN[C@@H](CC)CO` [ethambutol, reference compound]?
**A.** mean lung burdens [1, 12]: 4.15 log10 CFU; reduction of lung burdens ([1]; 100 mg/kg, relative to untreated): 2.4 log

**Q.** For `NNC(=O)c1ccncc1` [isoniazid, reference compound], which MIC [2] is on record?
**A.** The MIC was 0.016 µg/mL (≈ 0.117 µM).

**Q.** What about the MIC [2, 13] of the same compound?
**A.** The MIC was 0.016 µg/mL.

**Q.** And the MIC [3, 14]?
**A.** The MIC was 0.016 µg/mL.

**Q.** And the MIC [3, 15]?
**A.** Its MIC is 0.016 µg/mL (≈ 0.117 µM).

**Q.** Which MIC90 [4, 16] does the source give for `C[S+]([O-])c1cccc(-c2ccc3nc(N)n(-c4ccc(C(F)(F)F)cc4)c(=O)c3c2)c1` (stereo not drawn) [compound 2, 2-Amino-6-(3-(methylsulfinyl)phenyl)-3-(4-(trifluoromethyl)phenyl)quinazolin-4(3H)-one] here?
**A.** Its MIC90 is 0.64 µM (≈ 0.284 µg/mL).

**Q.** What about the solubility [5] of the same compound?
**A.** Its solubility is 80 µM (≈ 35.5 µg/mL).

**Q.** What about the “Metabolic Stability H (% Rem.)” value [6] of the same compound?
**A.** The value was 88/-/- % Rem.

**Q.** And the Vd ([7]; mouse, iv 5 mg/kg)?
**A.** Its Vd is 11.1 L/kg.

**Q.** What about the clearance ([7]; mouse, iv 5 mg/kg) of the same compound?
**A.** Its clearance is 21.8 mL/min/kg.

**Q.** What about the half-life ([7]; mouse, iv 5 mg/kg) of the same compound?
**A.** Its half-life is 6.2 h.

**Q.** What about the Tmax ([7]; mouse, oral 20 mg/kg) of the same compound?
**A.** The Tmax was 0.5 h.

**Q.** And the Cmax ([7]; mouse, oral 20 mg/kg)?
**A.** Its Cmax is 3.54 µM.

**Q.** And the bioavailability [7, 17]?
**A.** The bioavailability was 93%.

**Q.** What about the “AUC0–∞” value ([7]; mouse, iv 5 mg/kg) of the same compound?
**A.** The value was 523 min·μmol·L^–1.

**Q.** What about the “AUC0–∞” value ([7]; mouse, oral 20 mg/kg) of the same compound?
**A.** Its value is 2152 min·μmol·L^–1.

**Q.** What about the “Δcyd GASTE-Fe MIC90” value [8] of the same compound?
**A.** Its value is 2.5 µM.

**Q.** And the “signal in PiniB-LUX reporter assay” value [9]?
**A.** The value was “did not show a positive signal”.

**Q.** What about the “signal in PrecA-LUX reporter assay” value [10] of the same compound?
**A.** Its value is “did not show a positive signal”.

**Q.** And the MIC [2]?
**A.** The MIC was 1 µg/mL (≈ 2.26 µM).

**Q.** And the MIC [2, 13]?
**A.** The MIC was greater than 16 µg/mL.

**Q.** And the MIC [3, 14]?
**A.** Its MIC is greater than 16 µg/mL.

**Q.** And the MIC [3, 15]?
**A.** Its MIC is 0.5 µg/mL (≈ 1.13 µM).

**Q.** What about the mean lung burdens [1, 12] of the same compound?
**A.** Its mean lung burdens is 7.84 log10 CFU.

**Q.** What about the mean lung burdens ([1]; 200 mg/kg oral once per day, 12 days, three days after last dose, untreated 6.51) of the same compound?
**A.** The mean lung burdens was 7.75 log10 CFU.

**Q.** What about the tolerability ([1]; 100 and 200 mg/kg oral once per day, 12 consecutive days) of the same compound?
**A.** Its tolerability is “no evidence of compound tolerability issues”.

**Q.** What about the “efficacy in the BALB/c acute infection model” value ([1]; 100 and 200 mg/kg oral, 12 days) of the same compound?
**A.** Its value is “lack efficacy”.

**Q.** What about the IC50 [11] of the same compound?
**A.** Its IC50 is greater than 100 µM.

**Q.** What does the source list for `CO[C@H]1/C=C/O[C@@]2(C)Oc3c(C)c(O)c4c(O)c(c(/C=N/N5CCN(C)CC5)c(O)c4c3C2=O)NC(=O)/C(C)=C\C=C\[C@H](C)[C@H](O)[C@@H](C)[C@@H](O)[C@@H](C)[C@H](OC(C)=O)[C@@H]1C` [Rifampicin, reference compound]?
**A.** MIC90 ([4]; Mycobacterium tuberculosis, H37RV, 336 h): 0.0039 µM (≈ 0.00321 µg/mL); MIC90 [3]: <0.008 µg/mL; MIC ([3]; Mycobacterium tuberculosis, H37RV, read-out: MIC90): 0.016 µg/mL (≈ 0.0194 µM); mean lung burdens ([1]; mouse, in vivo): 5.72 log10 CFU; reduction of lung burdens ([1]; mouse, in vivo): 0.8 log

**Q.** With `CS(=O)(=O)c1cccc(-c2ccc3nc(N)n(-c4ccc(C(F)(F)F)cc4)c(=O)c3c2)c1` [compound 1, 2-Amino-6-(3-(methylsulfonyl)phenyl)-3-(4-(trifluoromethyl)phenyl)quinazolin-4(3H)-one] as the compound, how does the MIC90 ([4]; Mtb H37Rv, replicating conditions, GASTE-Fe media, read 14 days after incubation) read?
**A.** Its MIC90 is less than 0.244 µM.

**Q.** What about the MIC90 [4, 16] of the same compound?
**A.** The MIC90 was less than 0.244 µM.

**Q.** And the solubility [5]?
**A.** Its solubility is less than 5 µM.

**Q.** What about the “Metabolic Stability H (% Rem.)” value [6] of the same compound?
**A.** The value was 97 % Rem.

**Q.** And the “Metabolic Stability M (% Rem.)” value ([6]; mouse liver microsomes)?
**A.** Its value is 92 % Rem.

**Q.** What about the “Metabolic Stability R (% Rem.)” value ([6]; rat liver microsomes) of the same compound?
**A.** Its value is 100 % Rem.

**Q.** And the “AUC0–∞” value ([7]; 1 as metabolite of 2, mouse, oral 20 mg/kg of compound 2)?
**A.** Its value is 18430 min·μmol·L^–1.

**Q.** And the Vd ([7]; mouse, iv 5 mg/kg)?
**A.** The Vd was 0.81 L/kg.

**Q.** What about the clearance ([7]; mouse, iv 5 mg/kg) of the same compound?
**A.** The clearance was 1.3 mL/min/kg.

**Q.** And the half-life ([7]; mouse, iv 5 mg/kg)?
**A.** Its half-life is 7.3 h.

**Q.** And the Tmax ([7]; mouse, oral 20 mg/kg)?
**A.** Its Tmax is 3 h.

**Q.** And the Cmax ([7]; mouse, oral 20 mg/kg)?
**A.** Its Cmax is 5.98 µM.

**Q.** What about the bioavailability [7, 17] of the same compound?
**A.** Its bioavailability is 18%.

**Q.** What about the “AUC0–∞” value ([7]; mouse, iv 5 mg/kg) of the same compound?
**A.** The value was 8589 min·μmol·L^–1.

**Q.** And the “AUC0–∞” value ([7]; mouse, oral 20 mg/kg)?
**A.** Its value is 7249 min·μmol·L^–1.

**Q.** What about the bioavailability ([7]; mouse) of the same compound?
**A.** Its bioavailability is 18.4%.

**Q.** What about the IC50 [11] of the same compound?
**A.** The IC50 was greater than 100 µM.

From paper PMC7359024, “Synthesis, Structure–Activity Relationship, and Mechanistic Studies of Aminoquinazolinones Displaying Antimycobacterial Activity” (ACS Infectious Diseases, 2020)
